The assay deals with T1, TedJ (Streptomyces sp. WAC04657, UniProt Z9VZN5SQU4).
T1 construct: N-terminal hexa-histidine tag, recombinant in E. coli, purified; homodimer
T1 sequence (Z9VZN5SQU4 20-510): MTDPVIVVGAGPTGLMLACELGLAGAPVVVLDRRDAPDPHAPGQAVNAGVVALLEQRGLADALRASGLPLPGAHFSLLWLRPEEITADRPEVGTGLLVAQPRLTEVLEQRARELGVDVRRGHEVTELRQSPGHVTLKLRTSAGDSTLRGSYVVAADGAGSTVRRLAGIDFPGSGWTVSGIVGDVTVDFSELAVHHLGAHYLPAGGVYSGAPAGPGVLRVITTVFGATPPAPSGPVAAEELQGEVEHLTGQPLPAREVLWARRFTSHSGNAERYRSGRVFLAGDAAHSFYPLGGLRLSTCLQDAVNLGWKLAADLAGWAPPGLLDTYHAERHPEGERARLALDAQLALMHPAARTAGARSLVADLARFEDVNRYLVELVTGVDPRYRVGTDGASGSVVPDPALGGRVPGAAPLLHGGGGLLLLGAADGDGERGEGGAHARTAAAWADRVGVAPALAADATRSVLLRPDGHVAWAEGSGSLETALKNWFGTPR
Put plainly: X-ray crystal structure ([…] Å); MS of denatured protein; absorbance spectrum. It is filed as binding. Conditions: non-covalently bound, co-purified; proposed structural role.

Turning to `Cc1cc2nc3c(=O)[nH]c(=O)nc-3n(C[C@H](O)[C@H](O)[C@H](O)COP(=O)(O)OP(=O)(O)OC[C@H]3O[C@@H](n4cnc5c(N)ncnc54)[C@H](O)[C@@H]3O)c2cc1C` [FAD], the “X-ray crystal structure (1.6 Å); MS of denatured protein; absorbance spectrum” value was “showing the enzyme active site and non-covalently bound FAD molecule”.

These data come from article PMC12380092, “Chemoenzymatic total synthesis of the antibiotic (−)-13-deoxytetrodecamycin using the Diels–Alderase TedJ” (Chemical Science, 2025).
